PMC8587043, “An Investigation into the Interaction between Double Hydroxide-Based Antioxidant Benzophenone Derivatives and Cyclooxygenase 2” (Molecules, 2021)
Where two headings read alike, the source gives them in different places.

Tests used:
COX2 [1] = biological target: T1, COX2 (Homo sapiens, UniProt P35354); assay: Fluorescence quenching of COX2 (Stern-Volmer, double logarithm, thermodynamic parameters); assay type: binding; conditions: for KA relative to the control compound: 298 K and 310 K; for Kq (bimolecular quenching constant): Kq = Ksv/τ0; for Kd: read-out: KA (binding constant) (converted); for ΔH (enthalpy change) / ΔS (entropy change): from KA at 298 K and 310 K
T1 construct: purchased Sino Biological Co. (Beijing, China)
T1 sequence (P35354 18-604): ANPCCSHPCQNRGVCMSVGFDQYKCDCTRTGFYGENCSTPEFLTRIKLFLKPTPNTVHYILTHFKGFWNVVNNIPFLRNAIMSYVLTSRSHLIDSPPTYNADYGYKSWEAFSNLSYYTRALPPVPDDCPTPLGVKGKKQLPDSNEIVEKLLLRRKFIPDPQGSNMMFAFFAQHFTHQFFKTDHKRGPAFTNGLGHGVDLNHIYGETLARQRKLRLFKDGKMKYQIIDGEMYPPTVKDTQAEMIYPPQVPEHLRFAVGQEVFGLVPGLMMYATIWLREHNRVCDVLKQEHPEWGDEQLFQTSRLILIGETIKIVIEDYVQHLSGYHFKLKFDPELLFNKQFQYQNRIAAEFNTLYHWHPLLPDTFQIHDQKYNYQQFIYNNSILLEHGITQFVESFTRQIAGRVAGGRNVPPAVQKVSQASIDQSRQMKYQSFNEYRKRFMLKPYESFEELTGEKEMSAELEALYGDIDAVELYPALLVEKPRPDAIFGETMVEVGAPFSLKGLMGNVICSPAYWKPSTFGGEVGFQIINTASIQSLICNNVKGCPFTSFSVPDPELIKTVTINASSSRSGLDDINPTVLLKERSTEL
From the text: The emitted fluorescence spectra of COX2 solution (6.0 × 10^−8 mol∙L^−1) without and with an increasing concentration of compounds DB2, SC2 or YB2 (7.5 × 10^−6 mol∙L^−1 to 4.5 × 10^−5 mol∙L^−1) at different temperatures are shown in Figure 4a,b, Figure 4c,d or Figure 4e,f, respectively. […] The quenching constant Kq and Stern–Volmer constant Ksv at different temperatures are usually used to identify the quenching mechanisms, static or dynamic. The former is caused by ground-state complex formation, the latter is diffusion. For the static quenching mechanism, the quenching constant decreases with temperature increase. In this part, we calculated the Kq and Ksv values by using a universally accepted Stern–Volmer equation [38]:(1) F0/F=1+Kqτ0[Q]=1+Ksv[Q] where F0 and F are the protein fluorescence intensities in the absence and the presence of quencher (compounds DB2, SC2 or YB2), respectively. Kq = Ksv/ τ0 . τ0 is the fluorescence lifetime of the fluorophore without the quencher ([…]). [Q] is the concentration of quencher. The Stern-Volmer plots of COX2 fluorescence quenching by compounds DB2, SC2 or YB2 are presented in Figure 5a, Figure 5b or Figure 5c, respectively. According to Table 1, the Ksv and Kq values for all three systems (COX2-DB2, COX2-SC2 and COX2-YB2) decreased with increasing temperature. Therefore, we considered that the quenching was static quenching. To further verify that the system was static quenching, dynamic quenching was assumed first.
For the static quenching, we can use the double logarithm equation to obtain the binding constant (KA) and the number of binding sites per protein (n):(2) lgF0−F/F=lgKA+nlg[Q]
There are four main kinds of non-covalent forces between drugs and proteins. These are electrostatic force, hydrogen bonding, hydrophobic force and van der Waals force. The kind of interaction between compounds DB2, SC2 or YB2 and COX2 can be obtained from thermodynamic parameters, including the free energy change (ΔG), enthalpy change (ΔH) and entropy change (ΔS) of the reaction. The three thermodynamic parameters can be obtained according to the published equations [42, 44]:(3) ΔG=−RTlnK (4) lnK2/K1=ΔH(1/T1−1/T2)×1/R (5) ΔG=ΔH−TΔS
(§1) The fluorescence intensity of the system was measured with a 1.0 cm quartz cell. COX2 protein was dissolved in PBS for a final concentration of 6.0 × 10^−8 mol∙L^−1. DB2, SC2 or YB2 stock solutions were prepared in singleton at 1.5 × 10^−3 mol∙L^−1 in PBS containing 0.1% DMSO. 2.0 mL COX2 solution was separately titrated by continuing additions of 10 μL compounds DB2, SC2 or YB2 solution). After incubation at 298 K or 310 K, fluorescence quenching spectra were recorded in the region 325-450 nm at a scan rate of 1200 nm∙min^−1. The local environment of Tyr and Trp residues was quite sensitive at 280 nm, so the excitation wavelength was set at this wavelength. Typically, 280 nm is also used to measure the changes in protein tertiary structure. The slit widths of emission and excitation were both fixed at 10 nm. To observe spectra behaviors of Tyr and Trp groups of COX2, the wavelength interval between the excitation and emission wavelengths (Δλ) was set as 15 nm and 60 nm, respectively. Three-dimensional fluorescence spectroscopy was obtained for an excitation range of 200–300 nm and an emission range of 325–400 nm. Appropriate buffer solutions, determined under the same operation conditions, were used as blanks. Each spectrum was recorded three times.

COX2 [2] = biological target: T1, COX2; assay: Fluorescence resonance energy transfer between COX2 and compound; assay type: binding; conditions: for J (effective spectral overlap): COX2 emission vs compound absorption, each 5.0 × 10^−8 mol∙L^−1; for r (separation distance between COX2 and compound): κ^2 = 2/3, N = 1.336, φ = 0.15
From the text: The transfer of energy from the protein donor to the ligand acceptor is generally seen in strong protein–ligand complexes. In addition to divulging the binding activities, assessments of the energy transfer efficiency can reveal the distance between the ligand and the ligand binding site on the protein [47]. According to Förster theory, the efficiency depends not only on the orientation and distance of the molecules but also on the extent of overlap between the donor emission and acceptor absorption. The distance between the donor and acceptor must be in the 2 to 8 nm range [47, 48]. The overlaps of fluorescence emission spectrum of COX2 with absorption spectrum of compounds DB2, SC2 or YB2 are presented in Figure 5g–i, respectively. The energy transfer efficiency (E) from donor to acceptor was calculated by a widely used method:(6) E=R06/R06+r^6=F0−F/F0 (7) R06=8.79×10^−25κ^2N^−4φJ (8) J=∑^ F(λ)ε(λ)λ^4Δλ/∑^F(λ)Δλ
Here, r is the separation distance between the donor (COX2) and acceptor (DB2, SC2 or YB2). R0 is the Förster critical distance when E = 50%. κ^2 is the orientation space factor. N is the refractive index of medium surrounding the fluorophores. φ is the fluorescence quantum yield of the donor. J is overlap integral of the donor fluorescence emission spectrum and acceptor absorption spectrum. F(λ) is the fluorescence intensity of the protein at the wavelength λ, ε(λ) is the molar absorption coefficient of acceptor at λ. Using the values of κ^2 = 2/3, N = 1.336 and φ = 0.15 [49], J and r were calculated (Table 2).
as §1

SMILES | Ksv (Stern-Volmer quenching constant) (COX2 [1]; 298 K) | n (number of binding sites per protein) (COX2 [1]; 298 K) | ΔG (free energy change) (COX2 [1]; 298 K) [kJ/mol] | KA relative to the control compound (COX2 [1]) | Kq (bimolecular quenching constant) (COX2 [1]; 298 K) | Kd (COX2 [1]; 298 K) [µM] | Ksv (Stern-Volmer quenching constant) (COX2 [1]; 310 K) | n (number of binding sites per protein) (COX2 [1]; 310 K) | ΔG (free energy change) (COX2 [1]; 310 K) [kJ/mol] | Kq (bimolecular quenching constant) (COX2 [1]; 310 K) | Kd (COX2 [1]; 310 K) [µM] | ΔH (enthalpy change) (COX2 [1]) [kJ/mol] | ΔS (entropy change) (COX2 [1]) [J∙K^−1] | J (effective spectral overlap) (COX2 [2]) | r (separation distance between COX2 and compound) (COX2 [2]) [nm]
CCCCc1ccc(C(=O)c2c(Br)cc(O)c(O)c2O)cc1 [DB2] | 1.43 ± 0.188 ×10^4 L∙mol^−1 | 1.10 ± 0.0208 | -25.9 ± 0.280 | approximately an order of magnitude larger | 1.43 ± 0.188 ×10^12 L∙mol^−1∙S^−1 | 28.2 | 1.14 ± 0.380 ×10^4 L∙mol^−1 | 1.03 ± 0.0633 | -24.6 ± 0.561 | 1.14 ± 0.380 ×10^12 L∙mol^−1∙S^−1 | 73.1 | -61.6 ± 8.20 | −120 ± 28.1 | 1.64 ×10^−13 cm^3∙L∙mol^−1 | 6.42
CC(C)(C)c1ccc(C(=O)c2c(Cl)cc(O)c(O)c2O)cc1 [SC2] | 2.31 ± 0.988 ×10^4 L∙mol^−1 | 1.01 ± 0.0469 | -25.0 ± 0.229 | approximately an order of magnitude larger | 2.31 ± 0.988 ×10^12 L∙mol^−1∙S^−1 | 41.7 | 2.07 ± 1.03 ×10^4 L∙mol^−1 | 1.02 ± 0.0731 | -25.7 ± 0.599 | 2.07 ± 1.03 ×10^12 L∙mol^−1∙S^−1 | 45.7 | -6.74 ± 9.11 | 61.2 ± 31.3 | 1.55 ×10^−13 cm^3∙L∙mol^−1 | 6.62
CC(C)Cc1ccc(C(=O)c2c(Br)cc(O)c(O)c2O)cc1 [YB2] | 3.49 ± 1.69 ×10^4 L∙mol^−1 | 1.07 ± 0.0551 | -27.4 ± 0.101 | approximately an order of magnitude larger | 3.49 ± 1.69 ×10^12 L∙mol^−1∙S^−1 | 15.7 | 2.58 ± 0.562 ×10^4 L∙mol^−1 | 1.07 ± 0.0306 | -27.7 ± 0.318 | 2.58 ± 0.562 ×10^12 L∙mol^−1∙S^−1 | 21.5 | -20.7 ± 6.48 | 22.6 ± 21.9 | 1.72 ×10^−13 cm^3∙L∙mol^−1 | 6.47
